Assays:
[1] = tested on: 30H12 antibody; assay: ELISA with peptide-BSA conjugate on 30H12-coated plates; format: binding; settings: no competitor, FIG. 12A
Excerpt: FIG. 12A: ELISA using 30H12 anti-PSA monoclonal antibody-coated plates.
The specificity of the cyclic peptides was investigated in an ELISA assay using plates coated with 30H12 antibody, following the protocol as described above for the competitive ELISA, with the exception that the competitor was omitted.

[2] = tested on: subventricular zone explants (neuronal precursors); assay: Subventricular zone (SVZ) explant culture: cell migration in vitro; format: cell-based, mouse; settings: 0.4 μM peptide
[3] = tested on: MenB anti-PSA antibody; assay: Competitive binding to PSA-NCAM expressing cells (MenB)
Procedure: FIGS. 12B, 12C and 12D: competitive binding to PSA-NCAM expressing cells. B: pre-incubation of p65 (1 mM) or p66 (1 mM) with MenB anti-PSA antibody. C: 30H12 anti-PSA antibody without peptide. D: pre-incubation of p65 (1 mM) or p66 (1 mM) with 30H12 anti-PSA antibody.
The specificity of p65 and p66 peptides was tested in a competition assay using anti-PSA antibodies and PSA-NCAM expressing cells. […] The binding specificity was examined in greater detail by testing peptide recognition by another anti-PSA mononclonal antibody (MenB). […] Thus, p65 and p66 mimotopes appear to be specific for a unique (idiotypic) determinant.

[4] = tested on: GFP positive SVZ cells migrating to the olfactory bulb; assay: Transplantation of GFP SVZ explants: cell migration in vivo; set-up: species or system mouse
Procedure: 100 μm diameter explants of 1-day-old GFP mice SVZ were incubated fifteen minutes in DMEM supplemented with 10% fetal bovine serum in presence of 0.01 M of p65 or reverse peptide and stereotaxically grafted (0.5 μl) into six weeks old mice SVZ as described in Lois and Alvarez-Buylla (Science, 1994, 264, 1145-1 148). Three or four days after the graft, animals were perfused intracardiacally with a 4% paraformaldehyde solution in PBS. Brains were dissected out, postfixed, cryoprotected, and freezed in isopentane. Sagittal serial sections (12 μm) were cut with a Leica microtome and immunostained as described above. GFP cells arriving in the olfactory bulb after three days were observed using UV fluorescence with a 40× objective (Axioscope, ZEISS) and counted on two different experiments (four animals per condition). The significance of the difference between the two conditions was calvalated by Student's t test.
The effect of PSA mimetic peptides on cell migration in vivo was analysed by grafting tissue and evaluating migration of SVZ cells. Small pieces of SVZ tissue (100 μm diameter) from 1-day-old GFP mice were grafted in the SVZ area of adult mice, in the presence of p65, p65 reverse peptide or in the absence of peptide. The results are illustrated in FIG. 8.

[5] = tested on: chick retina axons; assay: Intravitreal injection in chick embryo, retinal whole mount: axon fasciculation and guidance in vivo; settings: injected into chicken embryo eyes at E3, retina observed at E9
Procedure: The dashed rectangle indicates the area from which photographs were taken. Arrows point toward the optic fissure. Axons of E9 chick retina injected at E3 with the reverse peptide (C,F) or the p65 peptide (D,G,E,H). Arrowheads show examples of axons that leave their fascicle and run perpendicularly to it.
Injections were performed as described in Monnier et al. (Developmental Biology, 2001, 229, 1-14). Briefly, a 2×2 cm window was cut into the shell over E3 chick embryos. One μl of Fast green with 10 mM of p65 or reverse peptide was injected into the right eye vitreous body using a capillary. After a five-days incubation at 37° C., (E8) retinae were dissected, spread onto nitrocellulose filters (MILIPORE), and fixed with 4% paraformaldehyde solution in PBS. Two small DiI (1,1′-dioctadecyl-3,3,3′,3′-tetramethylindocarbocyanine perchlorate) crystals were applied dorsally to the optic fissure. Retinae were stored in the dark at 37° C. for 10 days until the dye reached the axonal growth cones in the fissure, mounted in glycerol:PBS (9:1, v:v) and analysed using confocal microscopy.

[6] = tested on: subventricular zone explants (neuronal precursors); assay: Subventricular zone (SVZ) explant culture: cell migration in vitro; format: cell-based, mouse; settings: for Rate of migration of the neuronal precursors compared to the corresponding control peptide: FIG. 7, controls reverse p65 and p22
Procedure: Cultures of SVZ explants were performed as described in Chazal et al., precited. Briefly, 1-day-old mice were killed by rapid decapitation. Brains were dissected out and sectionned by Vibratome (Leica). The SVZ from the lateral wall of the anterior lateral ventricle horn was dissected out in HBSS medium (LIFE TECHNOLOGIES) and cut into 200-300 μm diameter explants. The explants were mixed with Matrigel (BECKTON DICKINSON) and cultured in four-well dishes. After polymerisation, the gel was overlaid with 400 μl of serum-free medium containing B-27 supplement (LIFE TECHNOLOGIES), in the presence or the absence of 40 μM of peptides (p65, p66, reverse p65, p21 or p22) and 70 U of Endo N per milliliter.
After 48 h in culture, explants were examining directly (SVZ) or after overnight fixation with a 4% paraformaldehyde solution in PBS and immunostaining (DRGs). Observation was done using 2, 5×, 5×, 10× and 32× objectives (Axiovert 35M, ZEISS). Images were collected with a video camera (Cool View, PHOTONIC SCIENCE) and analysed using image-processing software (Visiolab1000, BIOCOM). Mean migration distance (calculated on five different experiments, including at least five explants per condition) or mean length of the longest neurite (calculated on two different experiments, including at least eight explants per condition), was the distance in micrometers between the explant edge and the border of the cell migration front. Four measurements were performed for each explant. The significance of the differences between the control and the different experimental conditions was calculated by Student's t test.

Sequence | Binding of cyclic peptides to 30H12 antibody in ELISA [1] | Increase in the rate of migration of the neuronal precursors compared with the control without peptide [2] | Recognition of PSA-NCAM by MenB after pre-incubation with peptide ([3]; FIG. 12C) | Antibody specificity of peptide binding (30H12 versus MenB) ([3]; in words) | Increase of the number of GFP positive cells present in the olfactory bulb by comparison with the control ([4]; 3 days after the graft) [times] | Number of GFP positive cells migrating to the olfactory bulb ([4]; by comparison with the control, from 3 days post-engraftment) | Axon guidance and fasciculation in retina in vivo [5] | Rate of migration of the neuronal precursors compared to the corresponding control peptide [6] | Rate of migration of the neuronal precursors and chain-like arrangement ([6]; SVZ explants in Matrigel, FIG. 4) | Migration of precursors from NCAM −/− mice ([6]; SVZ explants of NCAM −/− mice, FIG. 6) | Concentration from which the optimal effect on cell migration is observed ([6]; dose-response curve) [µM] | PSA-dependence of the migration effect ([6]; with endo N treatment)
CSSVTAWTTGCG [p65] | highest binding | +40% | did not prevent recognition of PSA-NCAM | bind only to 30H12 | 17 | increases significantly | axons guidance and fasciculation defects | significant increase | increases the rate of migration | did not reverse the impaired migration | ≥ 0.4 | abolished by endo N treatment
DSPLVPFIDFHP [p21] |  |  |  |  |  |  |  | significant decrease |  |  |  | 
